Experimental data from ChEMBL document CHEMBL1201862, “PubChem BioAssay data set” (2004).
Activity calls are given as the source filed them.

Experiments:
[1] = target: T1, Leucine aminopeptidase (Plasmodium falciparum 3D7, UniProt Q8IL11); experiment: P. falciparum M17LAP inhibitors, primary screen, biochemical, fluorogenic H-Leu-NHMec substrate, 1536-well (AID 1619); type: functional
T1 sequence (Q8IL11 whole entry): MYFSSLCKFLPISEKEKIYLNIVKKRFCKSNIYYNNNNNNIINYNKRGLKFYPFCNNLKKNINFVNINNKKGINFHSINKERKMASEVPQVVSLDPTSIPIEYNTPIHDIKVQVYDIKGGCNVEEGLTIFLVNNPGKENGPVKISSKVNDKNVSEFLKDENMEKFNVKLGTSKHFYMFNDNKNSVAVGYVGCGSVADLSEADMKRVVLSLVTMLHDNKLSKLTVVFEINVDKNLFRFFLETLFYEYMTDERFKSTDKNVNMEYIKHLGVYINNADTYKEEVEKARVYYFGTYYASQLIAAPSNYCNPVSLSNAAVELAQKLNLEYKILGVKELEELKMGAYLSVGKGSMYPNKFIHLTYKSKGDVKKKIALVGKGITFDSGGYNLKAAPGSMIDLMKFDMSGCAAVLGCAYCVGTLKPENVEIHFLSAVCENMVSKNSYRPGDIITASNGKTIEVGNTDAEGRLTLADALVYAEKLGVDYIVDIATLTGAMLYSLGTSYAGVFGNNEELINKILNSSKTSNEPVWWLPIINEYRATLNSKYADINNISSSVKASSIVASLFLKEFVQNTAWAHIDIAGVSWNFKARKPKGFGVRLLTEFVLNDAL

[2] = target: T2, Aminopeptidase N (Plasmodium falciparum FcB1/Columbia, UniProt O96935); experiment: P. falciparum M1AAP inhibitors, biochemical, fluorogenic H-Leu-NHMec substrate, 1536-well (AID 1445); set-up: species or system Plasmodium falciparum 3D7, 3D7
T2 sequence (O96935 whole entry): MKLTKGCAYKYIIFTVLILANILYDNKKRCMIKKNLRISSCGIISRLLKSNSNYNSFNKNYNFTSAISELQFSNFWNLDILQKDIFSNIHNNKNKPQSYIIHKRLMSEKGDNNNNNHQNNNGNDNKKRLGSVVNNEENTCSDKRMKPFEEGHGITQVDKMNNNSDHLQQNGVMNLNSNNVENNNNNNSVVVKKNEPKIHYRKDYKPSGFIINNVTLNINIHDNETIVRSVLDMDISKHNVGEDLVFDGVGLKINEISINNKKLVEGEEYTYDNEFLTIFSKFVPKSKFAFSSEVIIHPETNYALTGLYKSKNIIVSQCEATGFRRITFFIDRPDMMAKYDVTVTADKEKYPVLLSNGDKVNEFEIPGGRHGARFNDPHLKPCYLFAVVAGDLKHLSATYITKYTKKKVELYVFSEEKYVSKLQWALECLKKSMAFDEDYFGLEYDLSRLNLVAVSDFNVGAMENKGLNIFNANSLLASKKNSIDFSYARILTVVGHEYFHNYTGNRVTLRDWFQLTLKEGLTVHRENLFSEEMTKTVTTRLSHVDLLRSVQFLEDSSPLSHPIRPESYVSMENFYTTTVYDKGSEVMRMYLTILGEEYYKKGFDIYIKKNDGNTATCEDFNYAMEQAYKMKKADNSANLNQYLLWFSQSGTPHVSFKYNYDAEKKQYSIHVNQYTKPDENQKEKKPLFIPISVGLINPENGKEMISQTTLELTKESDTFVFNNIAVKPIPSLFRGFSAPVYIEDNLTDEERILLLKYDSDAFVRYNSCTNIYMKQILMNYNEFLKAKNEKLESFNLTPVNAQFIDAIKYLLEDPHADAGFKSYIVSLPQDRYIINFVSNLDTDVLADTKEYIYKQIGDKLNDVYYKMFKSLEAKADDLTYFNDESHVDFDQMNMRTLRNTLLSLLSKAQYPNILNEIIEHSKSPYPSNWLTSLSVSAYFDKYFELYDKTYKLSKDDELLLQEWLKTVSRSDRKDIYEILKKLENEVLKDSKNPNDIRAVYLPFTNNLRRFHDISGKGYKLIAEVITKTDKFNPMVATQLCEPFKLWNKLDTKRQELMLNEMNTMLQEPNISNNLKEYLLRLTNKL

[3] = growth suppression of PTEN-null colon cells, dose response, cell-based, HCT116 PTEN knockout (AID 1047); type: functional;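 note: HCT116 colon tumor cells with PTEN knocked out; cells exposed to compound for 60 hours before readout; potency for loss of cell viability measured by luminescence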
[4] = target: Prothrombin (Bos taurus, UniProt P00735); experiment: thrombin inhibition, dose response, biochemical, fluorescence polarization, uHTS hits (AID 602369); type: functional
[5] = target: Induced myeloid leukemia cell differentiation protein Mcl-1 (Homo sapiens, UniProt Q07820); experiment: Mcl-1/Noxa binding inhibitor potency, dose response, biochemical, TR-FRET (AID 1417); type: functional
Sequence of Induced myeloid leukemia cell differentiation protein Mcl-1 (Q07820 whole entry): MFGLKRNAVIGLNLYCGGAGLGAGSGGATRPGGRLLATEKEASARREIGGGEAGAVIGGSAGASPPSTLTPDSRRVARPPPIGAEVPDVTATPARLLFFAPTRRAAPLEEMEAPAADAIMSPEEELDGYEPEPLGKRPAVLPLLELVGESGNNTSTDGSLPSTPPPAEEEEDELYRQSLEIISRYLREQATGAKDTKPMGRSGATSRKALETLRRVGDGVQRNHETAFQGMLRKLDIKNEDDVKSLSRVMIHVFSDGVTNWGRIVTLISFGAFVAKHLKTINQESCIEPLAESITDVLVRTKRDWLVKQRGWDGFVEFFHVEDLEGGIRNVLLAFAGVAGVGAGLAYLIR

[6] = target: 72 kDa type IV collagenase (Homo sapiens, UniProt P08253); experiment: Dose Response validation of uHTS RPN11 inhibitor hits using a MMP-2 Fluorescence assay.; type: functional
Sequence of 72 kDa type IV collagenase (P08253 whole entry): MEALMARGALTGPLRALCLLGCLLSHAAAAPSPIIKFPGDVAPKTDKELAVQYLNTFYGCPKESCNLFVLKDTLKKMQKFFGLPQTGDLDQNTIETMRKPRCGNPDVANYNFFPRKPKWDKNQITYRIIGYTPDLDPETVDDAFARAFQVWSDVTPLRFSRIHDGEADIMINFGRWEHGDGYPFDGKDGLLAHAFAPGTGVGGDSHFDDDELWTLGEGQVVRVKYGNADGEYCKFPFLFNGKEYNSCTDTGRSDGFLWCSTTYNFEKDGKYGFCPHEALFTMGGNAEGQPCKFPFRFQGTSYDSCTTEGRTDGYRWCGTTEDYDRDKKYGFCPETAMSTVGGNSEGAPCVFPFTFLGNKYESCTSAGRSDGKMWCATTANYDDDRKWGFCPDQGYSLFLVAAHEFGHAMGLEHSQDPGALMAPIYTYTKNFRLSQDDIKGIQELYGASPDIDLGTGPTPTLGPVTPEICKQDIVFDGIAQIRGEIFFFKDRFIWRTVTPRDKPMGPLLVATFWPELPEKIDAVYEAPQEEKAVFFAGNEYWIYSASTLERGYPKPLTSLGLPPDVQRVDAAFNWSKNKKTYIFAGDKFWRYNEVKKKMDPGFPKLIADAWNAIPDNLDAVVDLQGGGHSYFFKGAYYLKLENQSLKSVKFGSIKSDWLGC

[7] = target: 26S proteasome non-ATPase regulatory subunit 14 (Homo sapiens, UniProt O00487); experiment: inhibition of proteasome subunit RPN11 – biochemical, fluorescence polarization, uHTS hits, confirmation (AID 602368); type: functional
Sequence of 26S proteasome non-ATPase regulatory subunit 14 (O00487 whole entry): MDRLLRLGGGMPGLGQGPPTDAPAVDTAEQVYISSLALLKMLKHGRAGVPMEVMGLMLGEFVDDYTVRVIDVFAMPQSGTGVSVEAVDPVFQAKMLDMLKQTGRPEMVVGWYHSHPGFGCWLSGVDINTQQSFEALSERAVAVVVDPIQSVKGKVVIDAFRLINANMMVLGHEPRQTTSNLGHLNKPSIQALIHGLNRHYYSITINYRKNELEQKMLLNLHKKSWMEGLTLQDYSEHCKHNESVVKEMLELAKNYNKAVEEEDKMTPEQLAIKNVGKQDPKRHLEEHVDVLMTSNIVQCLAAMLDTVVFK

[8] = growth suppression of beta-catenin-knockout colon cells, dose response, cell-based, HCT116, human colon tumor (AID 1045); type: functional;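 note: HCT116 colon tumor cells with beta catenin knocked out; cells exposed to compound for 60 hours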
[9] = target: Glyceraldehyde-3-phosphate dehydrogenase (Homo sapiens, UniProt P04406)
Sequence of Glyceraldehyde-3-phosphate dehydrogenase (P04406 whole entry): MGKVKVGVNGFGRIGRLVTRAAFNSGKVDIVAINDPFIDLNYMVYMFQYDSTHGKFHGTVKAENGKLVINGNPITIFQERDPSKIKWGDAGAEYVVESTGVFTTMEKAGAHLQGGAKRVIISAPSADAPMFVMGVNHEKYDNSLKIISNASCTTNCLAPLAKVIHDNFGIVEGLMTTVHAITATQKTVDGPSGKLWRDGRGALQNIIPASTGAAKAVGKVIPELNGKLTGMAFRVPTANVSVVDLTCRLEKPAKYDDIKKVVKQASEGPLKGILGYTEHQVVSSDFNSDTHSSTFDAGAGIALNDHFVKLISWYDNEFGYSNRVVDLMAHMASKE

[10] = target: T3, Alkaline phosphatase, tissue-nonspecific isozyme (Homo sapiens, UniProt P05186); experiment: human TNAP enzyme inhibitors, SAR follow-up, biochemical, luminescent, dose response (AID 1056)
T3 sequence (P05186 whole entry): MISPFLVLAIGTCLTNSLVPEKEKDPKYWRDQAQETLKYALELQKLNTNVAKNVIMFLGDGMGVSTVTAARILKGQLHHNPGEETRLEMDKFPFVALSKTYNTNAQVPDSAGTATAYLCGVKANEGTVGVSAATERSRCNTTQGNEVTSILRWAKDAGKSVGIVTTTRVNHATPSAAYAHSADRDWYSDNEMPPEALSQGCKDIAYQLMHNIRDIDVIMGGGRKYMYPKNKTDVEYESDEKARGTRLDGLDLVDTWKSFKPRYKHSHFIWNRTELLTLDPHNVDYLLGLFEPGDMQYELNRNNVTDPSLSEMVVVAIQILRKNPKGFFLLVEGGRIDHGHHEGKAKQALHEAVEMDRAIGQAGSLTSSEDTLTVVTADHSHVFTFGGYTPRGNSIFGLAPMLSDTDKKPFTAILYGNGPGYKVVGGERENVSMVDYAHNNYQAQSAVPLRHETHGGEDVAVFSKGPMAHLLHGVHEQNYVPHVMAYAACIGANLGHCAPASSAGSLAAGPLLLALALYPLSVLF

[11] = cytotoxicity toward DRD oncogenic fibroblasts, dose response, cell-based, non-viral oncogenic, luminescence (AID 1934); type: functional; details: Homo sapiens
[12] = system: BJ; experiment: cytotoxicity toward BJ-TERT fibroblasts, dose response, cell-based, RAS-independent, luminescence (AID 1933); type: functional; details: Homo sapiens
[13] = system: BJ; experiment: cytotoxicity toward BJ-TERT-LT-ST fibroblasts, dose response, cell-based, RAS-independent, luminescence (AID 1935); type: functional; details: Homo sapiens;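 note: BJ fibroblasts immortalized with TERT plus LT and ST oncogenes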
[14] = target: T4, Replicative DNA helicase DnaB (Mycobacterium tuberculosis, UniProt P9WMR3); experiment: DnaB intein splicing inhibitors, dose response, biochemical, cell-free fluorescence (AID 449749); type: functional
T4 sequence (P9WMR3 whole entry): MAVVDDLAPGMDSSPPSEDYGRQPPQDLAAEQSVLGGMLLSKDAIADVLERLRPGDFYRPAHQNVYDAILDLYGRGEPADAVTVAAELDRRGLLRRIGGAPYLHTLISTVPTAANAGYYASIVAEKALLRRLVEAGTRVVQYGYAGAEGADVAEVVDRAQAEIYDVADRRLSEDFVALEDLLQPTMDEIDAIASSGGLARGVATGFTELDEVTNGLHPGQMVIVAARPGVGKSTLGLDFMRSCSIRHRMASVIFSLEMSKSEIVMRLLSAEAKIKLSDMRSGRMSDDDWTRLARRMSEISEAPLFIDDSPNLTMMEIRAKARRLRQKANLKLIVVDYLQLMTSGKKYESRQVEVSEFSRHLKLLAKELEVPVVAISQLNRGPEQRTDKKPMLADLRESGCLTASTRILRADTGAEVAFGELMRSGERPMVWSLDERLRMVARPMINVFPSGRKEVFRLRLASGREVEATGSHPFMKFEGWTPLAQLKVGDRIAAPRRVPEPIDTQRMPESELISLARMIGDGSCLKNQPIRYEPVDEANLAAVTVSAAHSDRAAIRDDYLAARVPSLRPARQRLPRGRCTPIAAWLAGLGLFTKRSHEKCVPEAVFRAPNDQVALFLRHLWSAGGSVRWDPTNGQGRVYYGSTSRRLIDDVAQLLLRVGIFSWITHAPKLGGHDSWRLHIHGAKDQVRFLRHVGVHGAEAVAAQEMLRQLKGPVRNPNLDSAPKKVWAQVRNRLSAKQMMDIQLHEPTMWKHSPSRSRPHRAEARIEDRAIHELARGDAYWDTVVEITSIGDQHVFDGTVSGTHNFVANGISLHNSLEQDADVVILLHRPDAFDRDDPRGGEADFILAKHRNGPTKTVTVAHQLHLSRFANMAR

[15] = system: BJ; experiment: cells; type: functional, cell-based; details: Homo sapiens
[16] = target: T5, Protein RecA (Mycobacterium tuberculosis, UniProt P9WHJ3); experiment: Fluorescence Cell-Free Homogeneous Dose Retest to Identify Inhibitors of RecA-Intein Splicing Activity. [Related pubchem assays (depositor defined):AID2097, AID2223, AID489010, AID492950]; type: functional
T5 sequence (P9WHJ3 whole entry): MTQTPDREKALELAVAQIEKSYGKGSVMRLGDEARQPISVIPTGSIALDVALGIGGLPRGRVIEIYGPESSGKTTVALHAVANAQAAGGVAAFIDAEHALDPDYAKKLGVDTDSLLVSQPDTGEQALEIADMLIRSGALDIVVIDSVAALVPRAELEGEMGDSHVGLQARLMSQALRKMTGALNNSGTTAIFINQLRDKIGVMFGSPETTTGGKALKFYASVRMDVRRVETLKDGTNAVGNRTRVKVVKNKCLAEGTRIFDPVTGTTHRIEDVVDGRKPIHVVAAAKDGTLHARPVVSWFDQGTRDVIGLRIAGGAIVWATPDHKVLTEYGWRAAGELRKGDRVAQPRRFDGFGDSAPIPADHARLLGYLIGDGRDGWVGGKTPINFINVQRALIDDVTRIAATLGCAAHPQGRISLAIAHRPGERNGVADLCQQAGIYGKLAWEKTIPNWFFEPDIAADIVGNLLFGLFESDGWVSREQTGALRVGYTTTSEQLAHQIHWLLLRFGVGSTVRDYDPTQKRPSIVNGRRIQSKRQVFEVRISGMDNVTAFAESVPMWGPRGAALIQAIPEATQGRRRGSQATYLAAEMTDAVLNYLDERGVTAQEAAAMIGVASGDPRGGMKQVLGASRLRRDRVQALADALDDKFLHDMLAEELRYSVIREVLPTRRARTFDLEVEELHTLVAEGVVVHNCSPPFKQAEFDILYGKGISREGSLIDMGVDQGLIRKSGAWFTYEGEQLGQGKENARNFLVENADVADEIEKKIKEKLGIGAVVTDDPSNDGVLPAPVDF

[17] = target: T6, Rac GTPase-activating protein 1 (Homo sapiens, UniProt Q9H0H5); experiment: MgcRacGAP GTPase-activating activity inhibitors, confirmation, biochemical, ADP Hunter fluorescence, primary and confirmatory (AID 624330); type: functional
T6 sequence (Q9H0H5 whole entry): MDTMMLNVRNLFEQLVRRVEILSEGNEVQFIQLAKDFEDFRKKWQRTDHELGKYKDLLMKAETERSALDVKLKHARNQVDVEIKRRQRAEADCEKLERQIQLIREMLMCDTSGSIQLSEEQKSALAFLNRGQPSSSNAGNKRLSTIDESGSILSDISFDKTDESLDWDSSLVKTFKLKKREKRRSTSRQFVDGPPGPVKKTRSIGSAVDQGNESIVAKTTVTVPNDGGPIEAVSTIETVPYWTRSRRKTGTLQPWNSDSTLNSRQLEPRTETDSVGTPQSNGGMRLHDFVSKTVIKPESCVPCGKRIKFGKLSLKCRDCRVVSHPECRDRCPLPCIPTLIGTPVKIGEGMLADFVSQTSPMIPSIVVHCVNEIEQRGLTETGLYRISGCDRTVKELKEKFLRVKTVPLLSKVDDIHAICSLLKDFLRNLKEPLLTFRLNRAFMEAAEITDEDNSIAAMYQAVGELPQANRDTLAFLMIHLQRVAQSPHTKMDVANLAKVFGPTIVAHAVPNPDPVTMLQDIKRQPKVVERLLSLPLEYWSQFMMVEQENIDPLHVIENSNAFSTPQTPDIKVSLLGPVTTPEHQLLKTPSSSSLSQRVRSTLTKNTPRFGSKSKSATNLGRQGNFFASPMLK

[18] = target: FAD-linked sulfhydryl oxidase ALR (Homo sapiens, UniProt P55789); experiment: inhibitors of human ALR sulfhydryl oxidase, dose response, biochemical, H2O2 detection, luminescence, cherry-pick (AID 493248)
Sequence of FAD-linked sulfhydryl oxidase ALR (P55789 whole entry): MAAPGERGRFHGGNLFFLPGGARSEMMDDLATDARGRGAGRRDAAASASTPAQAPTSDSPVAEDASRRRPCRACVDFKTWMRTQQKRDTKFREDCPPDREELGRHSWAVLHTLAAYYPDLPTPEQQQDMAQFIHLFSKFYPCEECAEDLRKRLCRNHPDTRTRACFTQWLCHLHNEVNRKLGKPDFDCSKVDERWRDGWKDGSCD

[19] = target: T7, CAAX prenyl protease 2 (Saccharomyces cerevisiae S288c, UniProt Q03530); type: biochemical
T7 sequence (Q03530 whole entry): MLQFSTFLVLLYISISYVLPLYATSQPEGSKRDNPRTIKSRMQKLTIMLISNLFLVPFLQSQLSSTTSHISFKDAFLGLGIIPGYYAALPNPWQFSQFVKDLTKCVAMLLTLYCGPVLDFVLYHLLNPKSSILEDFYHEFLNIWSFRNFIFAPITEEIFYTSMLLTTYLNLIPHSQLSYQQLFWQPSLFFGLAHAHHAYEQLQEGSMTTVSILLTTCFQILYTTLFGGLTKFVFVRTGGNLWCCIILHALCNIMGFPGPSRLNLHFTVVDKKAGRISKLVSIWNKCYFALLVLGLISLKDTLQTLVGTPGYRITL

CCc1nnc(NC(=O)CSc2nnc(-c3ccc(NS(=O)(=O)c4ccccc4)cc3)o2)s1
IC50 [1]: < 1 µM (active)
IC50 [2]: 59.8 µM (active)

COc1ccc2nc(N3C(=O)/C(=C/c4ccc(Cl)cc4)NC3=S)sc2c1
EC50 [3]: 28.3 µM (active)
IC50 [4]: 53 µM (active)
IC50 [5]: 1.5 µM (active)
IC50 [6]: 33.5 µM (active)
IC50 [7]: 13.3 µM (active)
EC50 [8]: 30.4 µM (active)

COc1ccc(OC)c(NCc2cnc3ccccc3c2)c1
IC50 [9]: > 100 µM (not active)
IC50 [10]: > 100 µM (inactive)

O=C(CCl)Nc1c(C(=O)Nc2ccc3c(c2)OCCO3)oc2ccccc12
EC50 [11]: 19 µM (active)
EC50 [12]: 3.66 µM (active)
EC50 [13]: > 150 µM (inconclusive)
AC50 [14]: 7.89 µM (active)
EC50 [15]: 29.4 µM (active)
EC50 [16]: 1.06 µM (active)

Cc1ccc(C(=O)OCC(=O)Nc2ccc(N(C)C)cc2)cc1NC(=O)c1ccco1
IC50 [5]: 3.67 µM (not active)

Cc1ccc(S(=O)(=O)Nc2ccc(N(C)C)cc2)cc1
IC50 [17]: 33.1 µM (active)
IC50 [5]: 10.7 µM (not active)
AC50 [18]: 4.46 µM (active)

Cc1cccc(NC(=O)C2(c3ccc([N+](=O)[O-])cc3)CCCC2)c1
AC50 [19]: 14 µM (active)
